According to patent US20230158057A1, “COMPOSITIONS AND METHODS FOR THE TREATMENT OF PAIN” (Duke University, priority 2020, published 2023):

Experiments:
[1] = tested on: osteoclasts and osteoblasts in tumor-bearing distal femora; assay: TRAP and ALP staining on mouse femurs; assay type: in vivo
Method: Bone histology, TRAP, and ALP staining on mouse femurs. Mice were deeply anesthetized and perfused intracardially with 4% paraformaldehyde (PFA) in 0.1M phosphate buffered saline. The femora were removed and then post-fixed for 48 h in the same fixative at 4° C. After demineralization in EDTA (10%) for 10 days, femur samples were dehydrated in an ascending gradient of ethanol (30-100%) followed by paraffin embedding. Serial sections for trabecular bone were obtained from the distal femur at a thickness of 5 μm followed by tartrate-resistant acid phosphatase (TRAP) staining or alkaline phosphatase (ALP) staining using TRAP kits (Fast Red TR/Naphthol AS-MX, Sigma, St. Louis, Mo.) and NBT/BCIP (Thermo Scientific), respectively. Bone static histomorphometric analyses for […] and osteoblast number (osteoblast number per trabecular bone surface, Ob.N/BS) were conducted using Image J (NIH) based on images taken by a Leica Q500MC microscope. Osteoclasts, osteoblasts and trabecular bone at the metaphysis of the femur (1500 μm proximal to the distal growth plate) were quantified, since bone destruction in this model mainly occurs in this area. Three sections per animal were randomly chosen and used for quantification.

[2] = tested on: tumor-infiltrating lymphocytes (TILs); assay: Flow cytometry of tumor-infiltrating lymphocytes in bone marrow; assay type: in vivo, mouse; settings: 24 h after second injection
Method: Flow cytometry. For analysis of immune subsets present within the bone marrow tumor microenvironment, bone marrow was collected as previously described followed by removal of RBC cells using RBC lysis buffer (Sigma, R7757). Cells were subsequently washed with PBS and resuspended in 2% paraformaldehyde in PBS for 10 minutes. Fixed cells were washed several times with PBS, followed by incubation in blocking buffer (1% anti-mouse-CD16/CD32, 2.4 G2, 2% FBS, 5% NRS, 1% triton ×100 and 2% NMS in HBSS; BD Bioscience) for 1 h at room temperature. Cells were subsequently stained with IL-17-FITC (1:20, rat, Miltenyi Biotec, 130-102-262), CD-3 APC/cy7 (1:200, rat, Biolegend, 100221), CD-4 APC (1:200, rat, Biolegend, 100411), FoxP3-PE (1:20, human, Miltenyl Biotec, 130-111-678), CD8a-FITC (1:200, rat, Biolegend, 100705), and CD11b-PE(1:200, rat, Biolegend, 101207) in blocking buffer for 1 h at room temperature. After staining, cells were washed in PBS with EDTA. Flow cytometry events were acquired by a BD FACS Canto II flow cytometer using the BD FACS Diva 8 software (BD Bioscience). Data were analyzed using Cytobank software (https://www.cytobank.org/cytobank).

[3] = tested on: IFN-β; assay: IFN-β ELISA on DRGs incubated ex vivo or cultured with ADU-S100; assay type: cell-based, mouse; settings: for IFN-β levels in DRG lysate: ex vivo incubation 30 μM, 2 h
Method: ELISA: Mouse high-sensitivity IFN-α ELISA kit (42115-1) and IFN-β ELISA kit (42410-1) were purchased from PBL Assay Science and performed on serum, DRG lysate, or cell culture medium according to the manufacturer's instructions. Serum was obtained from whole blood through cardiac puncture at the time of euthanasia, followed by incubation for 30 minutes at 35° C. to promote clotting. Subsequently, samples were centrifuged at 4° C. at 2,500 xg for 15 minutes, followed by careful isolation of serum (supernatant). For ELISA on cell culture medium, samples were first concentrated approximately 10-fold using Amicon centrifugal filters (Millipore Sigma, UFC8030). DRGs were lysed by mechanical homogenization in a pH 7.4 CHAPS lysis buffer (FivePhoton Biochemicals, CIB-1-7.4-60) supplemented with a protease inhibitor cocktail (Millipore Sigma, 11697498001) and phosphatase inhibitor cocktail (FivePhoton Biochemicals, PIC1). For DRG lysate, Pierce BCA (ThermoFisher, 23225) assays were performed according to the manufacturer's instructions to quantify protein concentration, and ELISA results are reported normalized to protein concentration (pg/mg DRG tissue). To measure IFN-β levels in cerebrospinal fluid (CSF) isolated by spinal catheter from NHPs, we utilized a cynomolgus IFN-β ELISA kit (PBL Assay Science, 46415-1), which was performed using 50 μl CSF according to the manufacturer's instructions. Standard curves were performed in all experiments and values interpolated using GraphPad Prism version.

Cc1ccc2c(=O)c3cccc(CC(=O)O)c3oc2c1C [DMXAA, 2-(5,6-dimethyl-9-oxo-9H-xanthen-4-yl)acetic acid]
osteoblasts ([1]; d11): no changes were observed in bone-forming osteoblasts | osteoclast numbers ([1]; d11, 2×20 mg/kg i.p.): far significantly fewer osteoclasts | proportion of CD4^+ T cells in bone marrow [2]: without significantly changing the proportion of (CD11b^− CD3^+) CD4^+ T cells | proportion of CD8^+ T cells in bone marrow [2]: significantly increased the proportion of (CD11b^− CD3^+) CD8^+ T cells | proportion of T^reg cells in bone marrow [2]: decreased the proportion of T^reg cells

Nc1ncnc2c1ncn2[C@@H]1O[C@@H]2COP(=O)([S-])O[C@@H]3[C@H](O)[C@@H](COP([O-])(=S)O[C@H]2[C@H]1O)O[C@H]3n1cnc2c(N)ncnc21.[Na+].[Na+] (stereo partly drawn) [ADU-S100, (2′-5′)-[P(R)]-5′-O-[(R)-hydroxymercaptophosphinyl]-P-thioadenylyl-adenosine cyclic dinucleotide]
IFN-β in culture medium ([3]; cultured DRGs from STING-WT mice): increased IFN-α and IFN-β in the culture medium | increase in IFN-β in STING-KO and STING-cKO DRGs ([3]; ex vivo incubation): abolished in STING-KO mice and largely abolished in STING-cKO mice | IFN-β levels in DRG lysate ([3]; STINGfx/fx, Nav1.8-Cre mice): significant elevation of IFN-β in STINGfx/fx; Nav1.8-Cre DRG lysate, but this increase was significantly lower than that seen in WT mice | IFN-β levels in DRG lysate ([3]; WT mice): IFN-β levels in DRG lysate were increased
